Experimental data as given in ChEMBL document CHEMBL3751696, “Mollisolactones A and B, novel dinormonoterpenes from the soft coral Sinularia mollis” (2016).
Converted amounts (≈) assume the structure as drawn. The source made the active and inactive calls. The rule behind the calls is not given here.

How the values were obtained:
[1] = system: A549; assay: Cytotoxicity against human A549 cells by MTT assay; assay type: functional; conditions: read-out: ED50 (the source's name)
[2] = system: HT-29; assay: Cytotoxicity against human HT-29 cells by MTT assay; assay type: functional; conditions: read-out: ED50 (the source's name)
[3] = system: P388; assay: Cytotoxicity against mouse P388 cells by MTT assay; assay type: functional; conditions: read-out: ED50 (the source's name)
[4] = system: Human betaherpesvirus 5; assay: Antiviral activity against Human cytomegalovirus at 50 ug/ml; assay type: functional, organism-based

Structure (SMILES)	EC50 [1] [µg/mL]	EC50 [2] [µg/mL]	EC50 [3] [µg/mL]	Activity [4]
CC(=O)CC1C=C(C)C(=O)O1 (stereo not drawn)	56 (≈ 363 µM)	58 (≈ 376 µM)	52 (≈ 337 µM)	inactive
CC(=O)CC1OC(=O)C=C1C (stereo not drawn)	53 (≈ 344 µM)	51 (≈ 331 µM)	56 (≈ 363 µM)	inactive
